Measurements from ChEMBL document CHEMBL3885861, “Open TG-GATES”.

Organism: Rattus norvegicus
Assay: Open TG-GATES - Regimen: Daily Repeat
Type: toxicity, organism-based, Sprague-Dawley
Parameters: regimen Daily Repeat, gender Male, age 6 weeks
Details: in vivo, po, 60 mg/kg, route gavage, dose level Middle; for APTT / Bas / Eos / Fbg / Hb / Ht / Lym / MCH / MCHC / MCV / Mono / Neu / PT / Plat / RBC / Ret / WBC: tissue Blood
[1] = 72 h, tissue Kidney, time 3 day
[2] = 72 h, tissue Plasma, time 3 day

Cn1c(=O)c2[nH]cnc2n(C)c1=O.O [THEOPHYLLINE]
TERMINAL_BW (72 h, time 3 day): 242.6 g
APTT (72 h, time 3 day): 21.7 s
Bas (72 h, time 3 day): 0%
Eos (72 h, time 3 day): 0.6%
Fbg (72 h, time 3 day): 303.4 mg/dL
Hb (72 h, time 3 day): 13.4 g/dL
Ht (72 h, time 3 day): 40.4%
Lym (72 h, time 3 day): 78.4%
MCH (72 h, time 3 day): 20.8 pg
MCHC (72 h, time 3 day): 33.2%
MCV (72 h, time 3 day): 62.8 fL
Mono (72 h, time 3 day): 3.2%
Neu (72 h, time 3 day): 16.4%
PT (72 h, time 3 day): 15.5 s
Plat (72 h, time 3 day): 123.5 x10_4/uL
RBC (72 h, time 3 day): 644.2 x10_4/ul
Ret (72 h, time 3 day): 7.4%
WBC (72 h, time 3 day): 126 x10_2/uL
KIDNEY_L [1]: 1 g
KIDNEY_R [1]: 1.1 g
KIDNEY_TOTAL [1]: 2.1 g
LIVER (72 h, tissue Liver, time 3 day): 10.8 g
A/G [2]: 1.2
ALP [2]: 1599.4 IU/L
ALT [2]: 44.2 IU/L
AST [2]: 69.2 IU/L
BUN [2]: 14.8 mg/dL
CRE [2]: 0.2 mg/dL
Ca [2]: 10.7 mg/dL
Cl [2]: 106.2 meq/L
DBIL [2]: 0 mg/dL
GLC [2]: 186 mg/dL
IP [2]: 8.4 mg/dL
K [2]: 4.2 meq/L
LDH [2]: 146.6 IU/L
Na [2]: 142 meq/L
PL [2]: 132.8 mg/dL
RALB [2]: 2.9 g/dL
TBIL [2]: 0.004 mg/dL
TC [2]: 80.4 mg/dL
TG [2]: 75 mg/dL
TP [2]: 5.3 g/dL
gamma-GTP [2]: 1.4 IU/L
TERMINAL_BW ([…], time 7 day): 265.8 g
TERMINAL_BW ([…], time 14 day): 313.9 g
TERMINAL_BW ([…], time 28 day): 384.1 g
APTT ([…], time 7 day): 23.4 s
Bas ([…], time 7 day): 0%
Eos ([…], time 7 day): 0.8%
Fbg ([…], time 7 day): 299.4 mg/dL
Hb ([…], time 7 day): 13.9 g/dL
Ht ([…], time 7 day): 40.6%
Lym ([…], time 7 day): 79%
MCH ([…], time 7 day): 21.2 pg
MCHC ([…], time 7 day): 34.2%
MCV ([…], time 7 day): 61.9 fL
Mono ([…], time 7 day): 2.8%
Neu ([…], time 7 day): 16.2%
PT ([…], time 7 day): 15.4 s
Plat ([…], time 7 day): 109.7 x10_4/uL
RBC ([…], time 7 day): 655.8 x10_4/ul
Ret ([…], time 7 day): 5.4%
WBC ([…], time 7 day): 123.4 x10_2/uL
APTT ([…], time 14 day): 24.1 s
Bas ([…], time 14 day): 0%
Eos ([…], time 14 day): 0.8%
Fbg ([…], time 14 day): 336.8 mg/dL
Hb ([…], time 14 day): 14.5 g/dL
Ht ([…], time 14 day): 42.9%
Lym ([…], time 14 day): 77.8%
MCH ([…], time 14 day): 20.6 pg
MCHC ([…], time 14 day): 33.9%
MCV ([…], time 14 day): 60.7 fL
Mono ([…], time 14 day): 2.4%
Neu ([…], time 14 day): 18%
PT ([…], time 14 day): 15.1 s
Plat ([…], time 14 day): 109.2 x10_4/uL
RBC ([…], time 14 day): 706.4 x10_4/ul
Ret ([…], time 14 day): 4.9%
WBC ([…], time 14 day): 119.3 x10_2/uL
APTT ([…], time 28 day): 25.6 s
Bas ([…], time 28 day): 0%
Eos ([…], time 28 day): 1%
Fbg ([…], time 28 day): 330.2 mg/dL
Hb ([…], time 28 day): 15.8 g/dL
Ht ([…], time 28 day): 45.7%
